# Assay results published in US6492334B1, “Tri-compound analgesic for treating inflammation and pain” (priority 1999, dated 2002).
# Legend:
# diagnosed torn muscle = assay: Treatment of a subject with diagnosed torn muscle; format: in vivo, human; conditions: person; for side effect of the prescriptions: NAPROSYN and FLEXERIL prescribed together; for relief by the third day: NAPROSYN and FLEXERIL prescribed together with bed rest, ice packs, heat
# From the text: The seventh subject was a person with a diagnosed torn muscle. Emergency Room treatment prescribed NAPROSYN (the trademark name for the drug naproxen sodium) an NSAID, and FLEXERIL(the trademark name for the drug cyclobenzaprene) a muscle relaxant. Also prescribed was bed rest and ice packs for the next 2 to 3 days. Heat was to be used by the second day to relieve spasm. […] This subject was given a protocol of 5 gram of ACI per dose, not the 3 gram ACI per dose as in the previous examples. This protocol was to be taken every hours 4 times per day.
# In all examples mentioned there was no compounding of any pills and no placebos were given.
# arthritis = conditions: as reported by the American Rheumatism Association; cited from earlier work
Structure (SMILES),side effect of the prescriptions (diagnosed torn muscle),relief by the third day (diagnosed torn muscle),effect on arthritis compared with placebo (arthritis)
"CN(C)CCC=C1c2ccccc2C=Cc2ccccc21 [FLEXERIL, cyclobenzaprene]",made them drowsy,no relief,
"COc1ccc2c(c1)c(CC(=O)O)c(C)n2C(=O)c1ccc(Cl)cc1 [INDOCIN, indomethacin]",,,no more effect on arthritis than a placebo
"COc1ccc2cc([C@H](C)C(=O)O)ccc2c1 [NAPROSYN, naproxen sodium]",made them drowsy,no relief,
